# Reference: PMC5920042, “KH176 Safeguards Mitochondrial Diseased Cells from Redox Stress-Induced Cell Death by Interacting with the Thioredoxin System/Peroxiredoxin Enzyme Machinery” (Scientific Reports, 2018)
# Entries after “also recorded” stand apart in the source; their conditions may differ.
# Legend:
# [1] = system: P4 cell line; test: Cellular ROS assay (DCFH-DA); assay type: cell-based, human
# Description: The cells were then treated for 72 h (or shorter as indicated) with culture medium containing semi-logarithmic dilutions of the test compound. Alternatively, 3 × 10^3 cells/well were seeded when cells were treated for 24 h only. At the end of the incubation period, cells were loaded with 40 µM DCFH-DA (#D6883, Sigma-Aldrich). in M199 without phenol red for 30 min. The excess of the dye was washed with ice-cold M199 without phenol red and the cells were lysed with 100 µl/well of ice-cold 0.2% Triton X-100 in M199 without phenol red after 10 min incubation in ice. Cellular debris was spun down by centrifugation at 2600 g, 5 min, +4 °C and 90 µl/well of cell lysate were transferred to a black 96-wells plate and DCF fluorescence was measured on a scanning microplate reader (BMG FLUOstar Omega; Ex. 480 nm, Em. 520 nm).
# [2] = system: P4 cell line; test: Redox Stress Survival assay (BSO-induced cell death, Calcein AM viability); assay type: cell-based, human; details: P4 cells
# Description: (§1) Cells were seeded at a density of 4 × 10^3 cells/well into 96-wells black plates and incubated for 24 h. To induce redox stress, semi-logarithmic dilutions of buthionine sulphoximine (BSO, #B2515, Sigma Aldrich) up to 100 µM were added to the cells in culture medium and incubated for 24 h. Cell viability was assessed by quantification of cellular conversion of Calcein AM into fluorescent Calcein. Briefly, after having discarded the BSO containing medium, cells were washed once with M199 without phenol red and loaded with 2 µM Calcein AM (#65-0853-39, Affimetrix eBioscience) in M199 without phenol red for 25 min. At the end of the incubation period, the excess of the dye was washed with M199 without phenol red and Calcein fluorescence was measured with a scanning microplate reader (BMG FLUOstar Omega; Ex. 480 nm, Em. 520 nm). For compound screening and target identification measurements cells were treated with 200 µM BSO alone or in co-incubation with semi-logarithmic dilutions of the test compound. Additionally, where indicated, increasing doses of Auranofin (AFN, #BML-EI206-0100, Enzo) or Aurothioglucose (ATG, #A0606, Sigma Aldrich) were co-incubated with BSO and the test compound. In all cases, cell viability was assessed 24 h after the treatment.
# [3] = system: C2 control cell line; test: Redox Stress Survival assay (BSO sensitivity); assay type: cell-based, human; details: C2, 24 h
# Description: as §1
# [4] = system: C1 control cell line; test: Redox Stress Survival assay (BSO sensitivity); assay type: cell-based, human; details: C1, 24 h
# Description: as §1
# [5] = system: C3 control cell line; test: Redox Stress Survival assay (BSO sensitivity); assay type: cell-based, human; details: C3, 24 h
# Description: as §1
# [6] = system: P6 cell line (Complex I, NDUFS8); test: Redox Stress Survival assay (BSO sensitivity); assay type: cell-based, human; details: P6, 24 h
# Description: as §1
# [7] = system: P2 cell line (Complex I, NDUFS2); test: Redox Stress Survival assay (BSO sensitivity); assay type: cell-based, human; details: P2, 24 h
# Description: as §1
# [8] = system: primary human skin fibroblasts; test: CumOOH induced lipid peroxidation (bodipy 581/591 C11); assay type: cell-based; details: 30 µM cumOOH, bodipy 581/591 C11
# Description: The cells were seeded at a density of 3 × 10^3 cells/well into 96-wells black plates. After 24 h, the cells were coincubated with 500 nM bodipy 581/591 C11 (#D3861, Thermo Fisher) and different amounts of KH compound in M199 without phenol red. This medium was used in all subsequent washes and incubations. After 30 min. incubation the cells were washed twice and subsequently incubated with 30 μM cumene hydroperoxide (cumOOH). For background subtractions cells with the dye but without cumOOH were used. After 30 minutes incubation and two washes oxidized bodipy 581/591 C11 was quantified on an automated bioimager (BD Pathway 855), by using a 20x objective and Ex. 488/10 nm, Em. FURA/FITC. Total cellular fluorescence per well was normalized on the number of cellular pixels/well and normalized on the incubation with probe and cumOOH but without compound (vehicle set as 100%). Experiments were performed at least three times with 3 wells per experiment.
# [9] = system: P4 cell line; test: Radical-Scavenging Capacity assay (CM-H2DCFDA, H2O2 or KO2); assay type: cell-based, human; details: P4 cells, 100 µM H2O2 or 1 mM KO2 (text: KOH), 3 µM compound
# Description: Cells were seeded at a density of 4 × 10^3 cells/well into 96-wells black plates. After 24 h the cells were loaded with 5 µM CM-H2DCFDA in M199 without phenol red for 20 min. The dye excess was washed with M199 without phenol red and immediately after, cells were treated acutely with different concentrations of the test compounds in M199 without phenol red. To generate radicals, 100 µM H2O2 or 1 mM KO2 were injected to the compound-treated cells and CM-DCF fluorescence was measured every 2 min for 70 cycles on a scanning microplate reader (BMG FLUOstar Omega; Ex. 480 nm, Em. 520 nm). The area under the generated curves was calculated using the Origin 6.1 software (OriginLab).
molecule,measurement,setting,value
"Cc1c(C)c2c(c(C)c1O)CCC(C)(C(=O)O)O2 (centres unmarked) [Trolox, reference compound]",IC50,"[1]; Homo sapiens, P4 cells, 72 h treatment",187 µM
same,EC50,"[2]; Homo sapiens, 200 µM BSO, 24 h",38 µM
"CCCCS(=N)(=O)CCC(N)C(=O)O (centres unmarked) [BSO, Buthionine sulphoximine]",IC50,[2]; 24 h BSO up to 100 µM,3.8 µM
same,IC50 BSO,[3],n.s.
same,IC50 BSO,[4],n.s.
same,IC50 BSO,[5],n.s.
same,IC50 BSO,[6],n.s.
same,IC50 BSO,[7],n.s.
COc1c(C)c(C)c2c(c1C)CC[C@@](C)(C(=O)N[C@@H]1CCCNC1)O2 [KH176i],Activity in the ROS assay,"[1]; P4 cells, 24 h compound treatment",inactive
same,Rescue of cell viability from BSO-induced death,"[2]; 200 µM BSO, 24 h",unable to rescue cell viability
same,Effect on CumOOH induced lipid peroxidation,[8],no effect; also recorded: no activity
same,Reduction of H2O2-induced radicals and O2.- (CM-H2DCFDA oxidation),[9],not
"auranofin [AFN, reference compound]",Effect of thioredoxin reductase inhibition on ROS reduction by KH176m,"[1]; 24 hours, 100 nM AFN with 1 µM KH176m, DCFH-DA",did not affect the capacity of KH176m to reduce the DCFH-DA signal
same,Effect of thioredoxin reductase inhibition on rescue by KH176(m),"[2]; 200 µM BSO, 100 nM AFN",decrease of the capacity of KH176(m) to rescue the cells
